{"source": "patent US9695155B2", "about": "“Herbicidal substituted pyrimidinyloxy benzene compounds” (E. I. DU PONT DE NEMOURS AND COMPANY, priority 2013, dated 2017)", "key": {"[1]": {"test_system": "morningglory", "assay": "Test A postemergence", "assay_type": "in vivo, Ipomoea spp.", "in_short": "(§1)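 Compounds in non-phytotoxic solvent with surfactant applied as soil spray preemergence, or postemergence to plants 2-10 cm at one- to two-leaf stage, in loam/sand. After approximately 10 days in greenhouse, injury rated visually versus untreated controls, 0 (no effect) to 100 (complete control).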"}, "[2]": {"test_system": "corn", "assay": "Test A preemergence", "assay_type": "in vivo, Zea mays", "in_short": "as §1"}, "[3]": {"test_system": "wheat", "assay": "Test A preemergence", "assay_type": "in vivo, Triticum aestivum", "in_short": "as §1"}, "[4]": {"test_system": "Heteranthera limosa", "assay": "Test B flooded paddy test", "assay_type": "in vivo", "settings": "Flood, 250 g ai/ha; 0 to 100 scale where 0 is no effect and 100 is complete control", "in_short": "(§2)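 Compound added straight to paddy water, with pots kept flooded 3 cm above soil, on plants grown to the 2-leaf stage. Visual scoring 0-100 (100 = complete control) against untreated controls after 13 to 15 greenhouse days.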"}, "[5]": {"test_system": "velvetleaf", "assay": "Test A postemergence", "assay_type": "in vivo, Abutilon theophrasti", "in_short": "as §1"}, "[6]": {"test_system": "large (Lg) crabgrass", "assay": "Test A preemergence", "assay_type": "in vivo, Digitaria sanguinalis", "in_short": "as §1"}, "[7]": {"test_system": "morningglory", "assay": "Test A preemergence", "assay_type": "in vivo, Ipomoea spp.", "in_short": "as §1"}, "[8]": {"test_system": "rice", "assay": "Test B flooded paddy test", "assay_type": "in vivo, Oryza sativa", "settings": "Flood, 250 g ai/ha; 0 to 100 scale where 0 is no effect and 100 is complete control", "in_short": "as §2"}, "[9]": {"test_system": "barnyardgrass", "assay": "Test B flooded paddy test", "assay_type": "in vivo, Echinochloa crus-galli", "settings": "Flood, 250 g ai/ha; 0 to 100 scale where 0 is no effect and 100 is complete control", "in_short": "as §2"}, "[10]": {"test_system": "barnyardgrass", "assay": "Test A preemergence", "assay_type": "in vivo, Echinochloa crus-galli", "in_short": "as §1"}, "[11]": {"test_system": "pigweed", "assay": "Test A preemergence", "assay_type": "in vivo, Amaranthus retroflexus", "in_short": "as §1"}, "[12]": {"test_system": "giant foxtail", "assay": "Test A postemergence", "assay_type": "in vivo, Setaria faberii", "in_short": "as §1"}, "[13]": {"test_system": "giant foxtail", "assay": "Test A preemergence", "assay_type": "in vivo, Setaria faberii", "in_short": "as §1"}, "[14]": {"test_system": "large (Lg) crabgrass", "assay": "Test A postemergence", "assay_type": "in vivo, Digitaria sanguinalis", "in_short": "as §1"}, "[15]": {"test_system": "velvetleaf", "assay": "Test A preemergence", "assay_type": "in vivo, Abutilon theophrasti", "in_short": "as §1"}, "[16]": {"test_system": "pigweed", "assay": "Test A postemergence", "assay_type": "in vivo, Amaranthus retroflexus", "in_short": "as §1"}, "[17]": {"test_system": "barnyardgrass", "assay": "Test A postemergence", "assay_type": "in vivo, Echinochloa crus-galli", "in_short": "as §1"}, "[18]": {"test_system": "corn", "assay": "Test A postemergence", "assay_type": "in vivo, Zea mays", "in_short": "as §1"}, "[19]": {"test_system": "sedge, umbrella", "assay": "Test B flooded paddy test", "assay_type": "in vivo, Cyperus difformis", "settings": "Flood, 250 g ai/ha; 0 to 100 scale where 0 is no effect and 100 is complete control", "in_short": "as §2"}, "[20]": {"test_system": "wheat", "assay": "Test A postemergence", "assay_type": "in vivo, Triticum aestivum", "in_short": "as §1"}, "[21]": {"settings": "125 g ai/ha, 0 to 100 scale, 0 no effect, 100 complete control"}, "[22]": {"settings": "500 g ai/ha, 0 to 100 scale where 0 is no effect and 100 is complete control"}}, "data": [{"molecule": "CC1(C)OB(c2cnn(-c3c(C#N)cccc3Oc3ncc(Cl)cn3)c2)OC1(C)C", "note": "[Compound 285]", "values": [{"measurement": "Plant response rating, Morningglory", "setting": "[1]; [21]", "result": 30}, {"measurement": "Plant response rating, Morningglory", "setting": "[1]; [22]", "result": 40}, {"measurement": "Corn plant response rating (0 to 100 scale)", "setting": "[2]; 125 g ai/ha", "result": 0}, {"measurement": "Corn plant response rating", "setting": "[2]; [22]", "result": 20}, {"measurement": "Wheat plant response rating (0 to 100 scale)", "setting": "[3]; 125 g ai/ha", "result": 0}, {"measurement": "Wheat plant response rating", "setting": "[3]; [22]", "result": 20}, {"measurement": "Plant response rating, Ducksalad", "setting": "[4]", "result": 0}, {"measurement": "Plant response rating, Velvetleaf", "setting": "[5]; [21]", "result": 30}, {"measurement": "Plant response rating, Velvetleaf", "setting": "[5]; [22]", "result": 80}, {"measurement": "Crabgrass, Large plant response rating (0 to 100 scale)", "setting": "[6]; 125 g ai/ha", "result": 80}, {"measurement": "Crabgrass, Large plant response rating", "setting": "[6]; [22]", "result": 100}, {"measurement": "Morningglory plant response rating (0 to 100 scale)", "setting": "[7]; 125 g ai/ha", "result": 0}, {"measurement": "Morningglory plant response rating", "setting": "[7]; [22]", "result": 40}, {"measurement": "Plant response rating, Rice", "setting": "[8]", "result": 0}, {"measurement": "Plant response rating, Barnyardgrass", "setting": "[9]", "result": 0}, {"measurement": "Barnyardgrass plant response rating (0 to 100 scale, 0 is no effect, 100 is complete control)", "setting": "[10]; 125 g ai/ha", "result": 0}, {"measurement": "Barnyardgrass plant response rating", "setting": "[10]; [22]", "result": 30}, {"measurement": "Pigweed plant response rating (0 to 100 scale)", "setting": "[11]; 125 g ai/ha", "result": 80}, {"measurement": "Pigweed plant response rating", "setting": "[11]; [22]", "result": 100}, {"measurement": "Plant response rating, Foxtail, Giant", "setting": "[12]; [21]", "result": 0}, {"measurement": "Plant response rating, Foxtail, Giant", "setting": "[12]; [22]", "result": 60}, {"measurement": "Foxtail, Giant plant response rating (0 to 100 scale)", "setting": "[13]; 125 g ai/ha", "result": 20}, {"measurement": "Foxtail, Giant plant response rating", "setting": "[13]; [22]", "result": 100}, {"measurement": "Plant response rating, Crabgrass, Large", "setting": "[14]; [21]", "result": 10}, {"measurement": "Plant response rating, Crabgrass, Large", "setting": "[14]; [22]", "result": 40}, {"measurement": "Velvetleaf plant response rating (0 to 100 scale)", "setting": "[15]; 125 g ai/ha", "result": 10}, {"measurement": "Velvetleaf plant response rating", "setting": "[15]; [22]", "result": 40}, {"measurement": "Plant response rating, Pigweed", "setting": "[16]; [21]", "result": 80}, {"measurement": "Plant response rating, Pigweed", "setting": "[16]; [22]", "result": 100}, {"measurement": "Plant response rating, Barnyardgrass", "setting": "[17]; [21]", "result": 0}, {"measurement": "Plant response rating, Barnyardgrass", "setting": "[17]; [22]", "result": 30}, {"measurement": "Plant response rating, Corn", "setting": "[18]; [21]", "result": 0}, {"measurement": "Plant response rating, Corn", "setting": "[18]; [22]", "result": 30}, {"measurement": "Plant response rating, Sedge, Umbrella", "setting": "[19]", "result": 0}, {"measurement": "Plant response rating, Wheat", "setting": "[20]; [21]", "result": 0}, {"measurement": "Plant response rating, Wheat", "setting": "[20]; [22]", "result": 20}]}]}
